Results on 11 compounds are retold here after ChEMBL document CHEMBL1201862, “PubChem BioAssay data set” (2004).

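Values below derive from 48-hour exposures of cells grown in 96-well plates, with endpoints linearly interpolated between the two concentrations bracketing the appropriate inhibition level. Abbreviation: GI50, concentration required for 50% inhibition of growth.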 Calls of active or inactive are those of the source. Cut-off read from the data, not from the text of the source: active = GI50 up to about 1.1 µM and inactive = higher.

Test systems include 786-0; A498; CCRF-CEM; DU-145; HCT-116; HT-29; Hs-578T; IGROV-1; K562; MCF7; MDA-MB-231; OVCAR-3; OVCAR-5; PC-3; SF-268; SF-539; T47D; UACC-62; NCI-H460; SNB-75.
What all share (assay): NCI anticancer screen, dose series, 48 h

As for `C[C@H](NC(=O)C(C)(Cc1ccc(O)cn1)NC(=O)c1ccccc1)c1ccccc1` (stereo not given in full), the GI50 in the assay on 786-0, with A498, with CCRF-CEM, with DU-145, in the assay with HCT-116 and in the assay with HT-29 was > 100 µM (inactive) throughout. For the same compound, the GI50 with Hs-578T, in the assay with IGROV-1, with K562, in the assay with MCF7, in the assay on MDA-MB-231 and in the assay on OVCAR-3 was > 100 µM (inactive) each time. Also, the GI50 with OVCAR-5, in the assay with PC-3, in the assay with SF-268, with SF-539, in the assay on T47D and in the assay with UACC-62 was > 100 µM (inactive) each time.
Consider `Nn1c(Nc2ccc(S(=O)(=O)Nc3ncccn3)cc2)nnc(/C=C/c2c(O)ccc3ccccc23)c1=O`, for which the GI50 with 786-0 was 26.6 µM (inactive); with A498 it was 25.2 µM (inactive); in the assay on CCRF-CEM it was 15.8 µM (inactive); with DU-145, 33.5 µM (inactive); in the assay on HCT-116, 21.1 µM (inactive); with HT-29, 33.9 µM (inactive). The GI50 in the assay on Hs-578T was 48.4 µM (inactive); with IGROV-1 it was 27.5 µM (inactive); in the assay with K562, 29 µM (inactive); in the assay on MCF7, 21.6 µM (inactive); with MDA-MB-231, 21.8 µM (inactive); in the assay on NCI-H460, 23.3 µM (inactive). The GI50 with OVCAR-3 was 15.1 µM (inactive); in the assay on OVCAR-5 it was 32.7 µM (inactive); in the assay on PC-3 it was 27.7 µM (inactive); in the assay with SF-268, 31.6 µM (inactive); in the assay with SNB-75, 22.2 µM (inactive); in the assay with T47D, 23.8 µM (inactive). In the assay with UACC-62, the GI50 is 20.5 µM (inactive).
With `Cc1noc(-c2ccc(C(=O)O)[nH]2)c1Br`, the GI50 in the assay on 786-0 was 29 µM (inactive); with A498, > 100 µM (inactive); in the assay on CCRF-CEM, > 100 µM (inactive); in the assay on DU-145, 37.9 µM (inactive); with HCT-116, 45.6 µM (inactive); in the assay with HT-29, > 100 µM (inactive). Besides, the GI50 with Hs-578T is 42.3 µM (inactive); with IGROV-1, 16.4 µM (inactive); in the assay with K562, > 100 µM (inactive); in the assay with MCF7, 50.1 µM (inactive); in the assay with MDA-MB-231, > 100 µM (inactive); with NCI-H460, > 100 µM (inactive). Moreover, the GI50 in the assay on OVCAR-3 was 23.4 µM (inactive); in the assay on OVCAR-5, > 100 µM (inactive); with PC-3 it was > 100 µM (inactive); with SF-268, 46.1 µM (inactive); in the assay on SNB-75, 26.6 µM (inactive); in the assay with T47D, 17.3 µM (inactive). The GI50 with UACC-62 is 64.6 µM (inactive).
Take `COc1ccc(-c2nc(O)c3ccccc3n2)cc1OC`: the GI50 in the assay with 786-0 is 36.1 µM (inactive); in the assay on CCRF-CEM it was > 100 µM (inactive); with DU-145, > 100 µM (inactive); with HCT-116, > 100 µM (inactive); in the assay on HT-29, > 100 µM (inactive); in the assay on Hs-578T it was 29.2 µM (inactive). Moreover, the GI50 in the assay with IGROV-1 was 24.6 µM (inactive); with K562, > 100 µM (inactive); with MCF7 it was > 100 µM (inactive); in the assay on MDA-MB-231 it was 24.4 µM (inactive); in the assay on NCI-H460, > 100 µM (inactive); in the assay with OVCAR-3 it was > 100 µM (inactive). The GI50 in the assay with OVCAR-5 is > 100 µM (inactive); with PC-3 it was > 100 µM (inactive); with SF-268 it was 25.2 µM (inactive); in the assay on SF-539, 37.8 µM (inactive); with SNB-75, 23.8 µM (inactive); in the assay on T47D it was 30.3 µM (inactive). In the assay with UACC-62, the GI50 is > 100 µM (inactive).
For the compound `CC(=O)O[C@@H]1[C@H](C(C)C)[C@@H](OC(C)=O)C/C(C)=C/CC[C@]2(C)O[C@@H]12`, the GI50 in the assay with 786-0, in the assay with A498, in the assay with DU-145, in the assay on HCT-116, in the assay with HT-29 and with Hs-578T was > 100 µM (inactive) throughout. Moreover, the GI50 in the assay on IGROV-1, in the assay with K562, in the assay on MCF7, with MDA-MB-231, with NCI-H460 and with OVCAR-3 was > 100 µM (inactive) each time. Also, the GI50 in the assay on OVCAR-5, in the assay with PC-3, with SF-268, in the assay with SNB-75, in the assay on T47D and in the assay with UACC-62 was > 100 µM (inactive) in each case.
For `C1CNCCNCCN1`, the GI50 in the assay with 786-0, in the assay with A498, in the assay with CCRF-CEM, in the assay on DU-145, in the assay on HCT-116 and in the assay with HT-29 was > 100 µM (inactive) each time. The GI50 in the assay with Hs-578T, with IGROV-1, in the assay on K562, in the assay on MCF7, in the assay with MDA-MB-231 and with NCI-H460 was > 100 µM (inactive) in each case. Moreover, the GI50 in the assay with OVCAR-3 was > 100 µM (inactive); in the assay with OVCAR-5, > 100 µM (inactive); with PC-3, > 100 µM (inactive); in the assay on SF-268, > 100 µM (inactive); in the assay on SF-539 it was 26.2 µM (inactive); with T47D it was > 100 µM (inactive). Moreover, in the assay with UACC-62, the GI50 was > 100 µM (inactive).
On to `Oc1ccc(C(O)(c2ccccc2)c2ccccc2)c2ccccc12`, for which the GI50 in the assay on 786-0 was 2.02 µM (inactive); in the assay with CCRF-CEM it was 0.019 µM (active); in the assay with DU-145, 2.13 µM (inactive); in the assay with HCT-116, 2.1 µM (inactive); in the assay with HT-29, 2.77 µM (inactive); in the assay with Hs-578T it was 3.88 µM (inactive). Also, the GI50 with IGROV-1 is 1.87 µM (inactive); with K562, 3.13 µM (inactive); in the assay on MCF7 it was 4.15 µM (inactive); in the assay on MDA-MB-231, 1.79 µM (inactive); with NCI-H460, 2.72 µM (inactive); in the assay with OVCAR-3, 1.42 µM (inactive). Besides, the GI50 with OVCAR-5 is 2.3 µM (inactive); with PC-3, 2.25 µM (inactive); in the assay with SF-268, 2.4 µM (inactive); in the assay with SF-539, 2 µM (inactive); with SNB-75, 4.53 µM (inactive); with T47D, 2.77 µM (inactive). Further, in the assay with UACC-62, the GI50 is 1.22 µM (inactive).
As to `CCN(CC)C(=S)SC(C(=O)Nc1nnc(-c2ccccc2)o1)c1ccccc1` (stereo not given), the GI50 in the assay on 786-0 was 15.8 µM (inactive); in the assay on A498 it was 18.2 µM (inactive); with DU-145 it was 17.9 µM (inactive); with HCT-116 it was 16 µM (inactive); with HT-29, 17.9 µM (inactive); in the assay on Hs-578T, 40.3 µM (inactive). In addition, the GI50 with IGROV-1 is 15.3 µM (inactive); with K562, 15.7 µM (inactive); with MCF7 it was 18.5 µM (inactive); with MDA-MB-231, 34.1 µM (inactive); with NCI-H460 it was 9.1 µM (inactive); in the assay on OVCAR-3, 15.2 µM (inactive). The GI50 is 23.1 µM (inactive) with OVCAR-5; 19.3 µM (inactive) with PC-3; 25.8 µM (inactive) in the assay on SF-539; 31.9 µM (inactive) in the assay with SNB-75; 23.7 µM (inactive) with T47D.
For the compound `CCCCCCCCCCCCCC1=C(O)C(=O)C(CC2=C(O)C(=O)C(CCCCCCCCCCCCC)=C(O)C2=O)=C(O)C1=O`, the GI50 with 786-0 is > 100 µM (inactive); with A498, 90.4 µM (inactive); in the assay on CCRF-CEM, 98.2 µM (inactive); in the assay on DU-145, > 100 µM (inactive); with HCT-116, > 100 µM (inactive); with HT-29, > 100 µM (inactive). Also, the GI50 in the assay on Hs-578T is 36 µM (inactive); with IGROV-1, > 100 µM (inactive); with K562 it was 66.1 µM (inactive); in the assay with MCF7 it was > 100 µM (inactive); with MDA-MB-231 it was 51.9 µM (inactive); in the assay with OVCAR-3, > 100 µM (inactive). Further, the GI50 in the assay with OVCAR-5 is > 100 µM (inactive); in the assay on PC-3, > 100 µM (inactive); in the assay on SF-268 it was 46.3 µM (inactive); in the assay on SF-539, > 100 µM (inactive); in the assay with SNB-75, 22.3 µM (inactive); with T47D it was > 100 µM (inactive). Besides, the GI50 with UACC-62 is > 100 µM (inactive).
Consider `Nc1nc(=O)c2cc(NCc3ccc(C(=O)NC(CCC(=O)O)C(=O)O)cc3)ccc2[nH]1` (stereo not given), for which the GI50 in the assay with 786-0, with CCRF-CEM, with DU-145, with HCT-116, in the assay with HT-29 and in the assay on Hs-578T was > 100 µM (inactive) in each case. Further, the GI50 with IGROV-1 was > 100 µM (inactive); with K562 it was > 100 µM (inactive); in the assay on MCF7 it was 6.56 µM (inactive); in the assay on MDA-MB-231 it was > 100 µM (inactive); in the assay with NCI-H460, 50 µM (inactive); in the assay with OVCAR-3, > 100 µM (inactive). For the same compound, the GI50 in the assay with OVCAR-5 was > 100 µM (inactive); with PC-3, > 100 µM (inactive); with SF-268, 59 µM (inactive); in the assay on SF-539 it was 6.65 µM (inactive); in the assay with SNB-75 it was > 100 µM (inactive); in the assay on T47D, > 100 µM (inactive). Moreover, in the assay with UACC-62, the GI50 was 45.9 µM (inactive).
With `O=C(COC(c1ccc(F)cc1)c1ccc(F)cc1)N1CCN(CCCc2ccccc2)CC1`, the GI50 is 3.94 µM (inactive) with 786-0; 3.08 µM (inactive) with A498; 7.62 µM (inactive) in the assay with CCRF-CEM; 4.44 µM (inactive) in the assay with DU-145; 2.88 µM (inactive) in the assay on HCT-116; 3.17 µM (inactive) with HT-29. Also, the GI50 with Hs-578T was 11.1 µM (inactive); in the assay on IGROV-1, 5.37 µM (inactive); in the assay with K562, 3.88 µM (inactive); in the assay with MCF7 it was 3.32 µM (inactive); with MDA-MB-231, 3.22 µM (inactive); with NCI-H460 it was 3.57 µM (inactive). Besides, the GI50 is 4.29 µM (inactive) in the assay with OVCAR-3; 4.15 µM (inactive) in the assay with OVCAR-5; 3.37 µM (inactive) with PC-3; 3.88 µM (inactive) in the assay with SF-268; 5.2 µM (inactive) with SF-539; 3.3 µM (inactive) in the assay on T47D. Further, the GI50 in the assay with UACC-62 was 4.26 µM (inactive).
